Counter-ions that a name gives are not always drawn.
How the values were obtained:
guinea pigs = test: Impact on the itch-causing effect of histamine phosphate (itch-causing threshold); format: in vivo; conditions: for alleviation of the itch-causing effect of histamine phosphate (in words): administration alone; for itch-causing threshold: oral, 3 consecutive days
[1] = test system: patients with diagnosed neurodermatitis; test: Clinical study of cannabinoid compound for neurodermatitis; format: in vivo, human; conditions: 2 weeks; for Cured (number of patients, efficacy index >90%) / effective (number of patients, efficacy index 20-60%) / excellently effective (number of patients, efficacy index 61-89%) / ineffective (number of patients, efficacy index <20%): orally once per day at bedtime, n=10; for clinical efficacy in neurodermatitis (in words): patients, orally once per day
5-HT1A receptors = target: T1, 5-HT1A receptors (Mus musculus, UniProt Q64264); conditions: possibly through activation of 5-HT1A receptors; cited from earlier work
T1 construct: host or cells: mice (in vivo)
T1 sequence (Q64264 1-421): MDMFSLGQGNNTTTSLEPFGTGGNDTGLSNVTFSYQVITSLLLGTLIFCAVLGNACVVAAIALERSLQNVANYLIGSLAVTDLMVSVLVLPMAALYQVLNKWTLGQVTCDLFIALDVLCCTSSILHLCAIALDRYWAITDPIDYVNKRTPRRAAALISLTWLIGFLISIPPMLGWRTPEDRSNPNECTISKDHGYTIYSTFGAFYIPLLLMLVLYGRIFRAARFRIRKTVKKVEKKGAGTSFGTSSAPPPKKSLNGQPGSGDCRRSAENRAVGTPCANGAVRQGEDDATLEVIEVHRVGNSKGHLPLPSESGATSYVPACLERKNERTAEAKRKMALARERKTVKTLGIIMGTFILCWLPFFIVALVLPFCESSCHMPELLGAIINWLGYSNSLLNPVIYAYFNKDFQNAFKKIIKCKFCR

[2] = 200 mg of cannabidiol (Embodiment 1)
[3] = 25 mg/d of doxepin hydrochloride
[4] = 100 mg of tetrahydrocannabinol (Embodiment 3)

C=C(C)[C@@H]1CCC(C)=C[C@H]1c1c(O)cc(CCCCC)cc1O [cannabidiol]
alleviation of the itch-causing effect of histamine phosphate (in words) (guinea pigs): significantly alleviates
itch-causing threshold (guinea pigs; 50 mg/day): 90.24 ± 45.98 µL
itch-causing threshold (guinea pigs; 200 mg/day): 96.55 ± 42.34 µL
itch-causing threshold (guinea pigs; 400 mg/day): 117.67 ± 44.67 µL
Cured (number of patients, efficacy index >90%) [1, 2]: 1
effective (number of patients, efficacy index 20-60%) [1, 2]: 6
excellently effective (number of patients, efficacy index 61-89%) [1, 2]: 3
ineffective (number of patients, efficacy index <20%) [1, 2]: 0
clinical efficacy in neurodermatitis (in words) [1]: have clinical efficacy in neurodermatitis
antidepressant activity in mice (in words) (5-HT1A receptors): has antidepressant activity in mice

C=C(C)[C@@H]1CCC(C)=C[C@H]1c1c(O)cc(CCC)cc1O [cannabidivarin]
itch-causing threshold (guinea pigs; 40 mg/day): 56.23 ± 45.87 µL
itch-causing threshold (guinea pigs; 80 mg/day): 59.55 ± 39.84 µL
itch-causing threshold (guinea pigs; 100 mg/day): 56.89 ± 34.25 µL

CN(C)CCC(c1ccc(Cl)cc1)c1ccccn1 (stereo not drawn) [chlorphenamine maleate, reference compound]
itch-causing threshold (guinea pigs; 10 mg/day): 127.03 ± 54.05 µL

CN(C)CCC=C1c2ccccc2COc2ccccc21 [doxepin hydrochloride, reference compound]
Cured (number of patients, efficacy index >90%) [1, 3]: 0
effective (number of patients, efficacy index 20-60%) [1, 3]: 3
excellently effective (number of patients, efficacy index 61-89%) [1, 3]: 6
ineffective (number of patients, efficacy index <20%) [1, 3]: 1

CCCCCc1cc(O)c2c(c1)OC(C)(C)[C@@H]1CCC(C)=C[C@@H]21 [tetrahydrocannabinol]
alleviation of the itch-causing effect of histamine phosphate (in words) (guinea pigs): significantly alleviates
itch-causing threshold (guinea pigs; 40 mg/day): 90.65 ± 32.08 µL
itch-causing threshold (guinea pigs; 80 mg/day): 92.10 ± 50.78 µL
itch-causing threshold (guinea pigs; 100 mg/day): 94.98 ± 48.96 µL
Cured (number of patients, efficacy index >90%) [1, 4]: 1
effective (number of patients, efficacy index 20-60%) [1, 4]: 6
excellently effective (number of patients, efficacy index 61-89%) [1, 4]: 2
ineffective (number of patients, efficacy index <20%) [1, 4]: 1
clinical efficacy in neurodermatitis (in words) [1]: have clinical efficacy in neurodermatitis

CCCc1cc(O)c2c(c1)OC(C)(C)[C@@H]1CCC(C)=C[C@@H]21 [tetrahydrocannabinovarin]
itch-causing threshold (guinea pigs; 5 mg/day): 50.45 ± 45.67 µL
itch-causing threshold (guinea pigs; 10 mg/day): 56.43 ± 34.18 µL
itch-causing threshold (guinea pigs; 20 mg/day): 55.23 ± 40.92 µL

From US20210393574A1, “USE OF C[…] IN NEURO[…]” (HANYI BIO-TECHNOLOGY (BEIJING) CO., LTD., priority 2018, published 2021)
